Data published in US10918741B2, “PSMA-targeting imaging agents” (THE CLEVELAND CLINIC FOUNDATION, priority 2014, dated 2021).
Entries after “also recorded” stand apart in the source; their conditions may differ. Primed or numbered codes have the meaning given here. Where no end group is shown, it is not given here. [ ]: non-standard residue; d: D form. Amc = N-aminomethyl cyclohexanoic acid; Ahx = NCCCCCC(=O)O; E′E = Glu-urea-Glu

What was measured:
[1] = cited from earlier work
[2] = hematological, biochemistry, and histopathological analyses; cited from earlier work
PC3-PIP tumors = tested on: PC3-PIP tumors; parameters: species or system mice; settings: mouse, in vivo
Method: (§1) Male NOD scid gamma (NSG) mice bearing PC3-PIP (PSMA+) and PC3-flu (PSMA−) tumor xenographs were used for imaging. The mice were injected with 3 mCi of [^99mTc]3. Four hours after tracer injection, SPECT/CT images were acquired using a high-resolution multi-pinhole SPECT with collimation insert with a clinical SPECT/CT scanner (Symbia T6, Siemens Molecular Imaging). DiFilippo, F. P. Phys Med Biol 53(15): 4185-4201 (2008). For the biodistribution study without imaging, male NSG mice bearing two PC3-PIP tumors were injected with 50-100 µCi of [^99mTc]3. Mice were sacrificed at 2 hours, 4 hours and 6 hours after injection. After thoracotomy, blood was first withdrawn from the heart, then the organs were resected en-block. The activities were counted with a Perkin Elmer 2480 Automatic Gamma Counter. The decay corrected percent injected dose per gram of organ weight (wet) (% ID/g) was calculated.

[3] = tested on: PC3-PIP (PSMA+) and PC3-flu (PSMA−) tumor xenographs; test: SPECT/CT imaging of [^99mTc]3; assay type: in vivo, mice; settings: 4 hours after tail vein injection
Method: as §1

[4] = assay type: physicochemical
Method: Labeling with technetium typically yields 95% radiochemical purity after SepPak purification. […] The kidneys and bladder are the most prominent organs on the images, because PSMA is expressed naturally in mouse kidneys and because it is a renally excreted compound. […] Tumor uptake is 6.0±1.6% at 2 hours, 6.0±2.2% at 4 hours and 5.7%±2.5% at 6 hours (Table 2). […] This is likely related to residual pertechnetate after cartridge purification and dissociation of technetium from the chelate.

Compound	water solubility in words [1]	toxicity in words [2]	radioactivity in the stomach (PC3-PIP tumors)	radioactivity in the thyroid (PC3-PIP tumors)	SPECT/CT imaging result in words [3]	stability under solvent conditions for HPLC [4]
CC1(C)C(=CC=C2CCCC(C=CC3=[N+](CCCCCC(=O)[O-])c4ccc(S(=O)(=O)[O-])cc4C3(C)C)=C2Oc2ccc(S(=O)(=O)[O-])cc2)N(CCCCS(=O)(=O)[O-])c2ccc(S(=O)(=O)[O-])cc21.[Na+].[Na+].[Na+].[Na+] [IRDye 800CW]	highly water soluble	no pathologic evidence of toxicity				
^99mTc-E′EAmc-Ahx-dEdEdEGYGGGC ({E′E-Amc}-[Ahx][dE][dE][dE]GYGGGC; not fully specified (C-terminus); also: 99mTc chelated (N3S1)) [[^99mTc]3, Tc99m labeled compound 3]			0.2 % ID/g	0.3 % ID/g	specific targeting of PSMA+PC3-PIP tumors with no significant binding to PC3-flu tumors; also recorded: near background tracer uptake in the PSMA negative tumors, liver, lung, heart and spleen	not stable
